Experimental data published in patent publication US8247211B2, “Glycopeptide antibiotics” (American Cyanamid Company, priority 2001, dated 2012).
In brackets after ≈: the same amount, converted by molar mass.

Columns and labels:
Assay in all cases: In vitro antibacterial evaluation: minimum inhibitory concentration (MIC), broth dilution method
Assay type in all cases: cell-based
Enterococcus sp. = details: 18 hours at 35° C.
How it was run: (§1)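 NCCLS M7-A2 broth dilution; Muller-Hinton II […]; 5×10^5 CFU/mL; 64-0.06 μg/mL. MIC = lowest concentration with no growth.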

Escherichia coli = details: 18 hours at 35° C.
How it was run: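 Susceptibility determined by NCCLS-recommended broth dilution (M7-A2), Muller-Hinton II […]. Concentration span 64-0.06 μg/mL, inoculum 5×10^5 CFU/mL. Isolates include strains resistant to methicillin, penicillin and/or vancomycin.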

Staphylococcus sp. = tested on: Staphylococcus sp.
How it was run: as §1

Streptococcus sp. = details: 18 hours at 35° C.
How it was run: as §1

[1] = broth dilution, inoculum 5×10^5 CFU/mL

MIC Enterococcus avium (GC 4558) (Enterococcus sp.; Enterococcus avium (GC 4558)): 16 µg/mL (≈ 11.2 µM)
MIC Enterococcus faecalis (ATCC 29212) (Enterococcus sp.; Enterococcus faecalis (ATCC 29212)): 32 µg/mL (≈ 22.4 µM)
MIC Enterococcus faecalis (GC 2242) (Enterococcus sp.; Enterococcus faecalis (GC 2242)): 32 µg/mL (≈ 22.4 µM)
MIC Enterococcus faecalis (GC 2691) (Enterococcus sp.; Enterococcus faecalis (GC 2691)): 32 µg/mL (≈ 22.4 µM)
MIC Enterococcus faecalis (GC 3059) (Enterococcus sp.; Enterococcus faecalis (GC 3059)): 32 µg/mL (≈ 22.4 µM)
MIC Enterococcus faecalis (GC 4552) (Enterococcus sp.; Enterococcus faecalis (GC 4552)): 32 µg/mL (≈ 22.4 µM)
MIC Enterococcus faecalis (GC 4553) (Enterococcus sp.; Enterococcus faecalis (GC 4553)): 32 µg/mL (≈ 22.4 µM)
MIC Enterococcus faecalis (GC 4554) (Enterococcus sp.; Enterococcus faecalis (GC 4554)): 32 µg/mL (≈ 22.4 µM)
MIC Enterococcus faecalis (GC 6189) (Enterococcus sp.; Enterococcus faecalis (GC 6189)): 32 µg/mL (≈ 22.4 µM)
MIC Enterococcus faecium (GC 2243) (Enterococcus sp.; Enterococcus faecium (GC 2243)): 32 µg/mL (≈ 22.4 µM)
MIC Enterococcus faecium (GC 4556) (Enterococcus sp.; Enterococcus faecium (GC 4556)): 32 µg/mL (≈ 22.4 µM)
MIC Enterococcus faecium (GC 4557) (Enterococcus sp.; Enterococcus faecium (GC 4557)): 8 µg/mL (≈ 5.59 µM)
MIC Enterococcus avium (GC 4558) (Enterococcus sp.; [1]): 16 µg/mL (≈ 11.2 µM)
MIC Enterococcus faecalis (ATCC 29212) (Enterococcus sp.; [1]): 32 µg/mL (≈ 22.4 µM)
MIC Enterococcus faecalis (GC 2242) (Enterococcus sp.; [1]): 32 µg/mL (≈ 22.4 µM)
MIC Enterococcus faecalis (GC 2691) (Enterococcus sp.; [1]): 32 µg/mL (≈ 22.4 µM)
MIC Enterococcus faecalis (GC 3059) (Enterococcus sp.; [1]): 32 µg/mL (≈ 22.4 µM)
MIC Enterococcus faecalis (GC 4552) (Enterococcus sp.; [1]): 32 µg/mL (≈ 22.4 µM)
MIC Enterococcus faecalis (GC 4553) (Enterococcus sp.; [1]): 32 µg/mL (≈ 22.4 µM)
MIC Enterococcus faecalis (GC 4554) (Enterococcus sp.; [1]): 32 µg/mL (≈ 22.4 µM)
MIC Enterococcus faecalis (GC 6189) (Enterococcus sp.; [1]): 32 µg/mL (≈ 22.4 µM)
MIC Enterococcus faecium (GC 2243) (Enterococcus sp.; [1]): 32 µg/mL (≈ 22.4 µM)
MIC Enterococcus faecium (GC 4556) (Enterococcus sp.; [1]): 32 µg/mL (≈ 22.4 µM)
MIC Enterococcus faecium (GC 4557) (Enterococcus sp.; [1]): 8 µg/mL (≈ 5.59 µM)
MIC Escherichia coli (ATCC 25922) (Escherichia coli; Escherichia coli (ATCC 25922)): >64 µg/mL
MIC Escherichia coli (GC 4559) (Escherichia coli; Escherichia coli (GC 4559)): >64 µg/mL
MIC Escherichia coli (GC 4560) (Escherichia coli; Escherichia coli (GC 4560)): 16 µg/mL (≈ 11.2 µM)
MIC Staphylococcus aureus (ATCC 29213) (Staphylococcus sp.; strain ATCC 29213): 16 µg/mL (≈ 11.2 µM)
MIC Staphylococcus aureus (GC 1131) (Staphylococcus sp.; strain GC 1131): 16 µg/mL (≈ 11.2 µM)
MIC Staphylococcus aureus (GC 3051) (Staphylococcus sp.; strain GC 3051): 16 µg/mL (≈ 11.2 µM)
MIC Staphylococcus aureus (GC 3053) (Staphylococcus sp.; strain GC 3053): 16 µg/mL (≈ 11.2 µM)
MIC Staphylococcus aureus (GC 4541) (Staphylococcus sp.; strain GC 4541): 8 µg/mL (≈ 5.59 µM)
MIC Staphylococcus aureus (GC 4542) (Staphylococcus sp.; strain GC 4542): 4 µg/mL (≈ 2.79 µM)
MIC Staphylococcus aureus-SMITH (GC 4543) (Staphylococcus sp.; strain GC 4543): 4 µg/mL (≈ 2.79 µM)
MIC Staphylococcus aureus (GC 4544) (Staphylococcus sp.; strain GC 4544): 16 µg/mL (≈ 11.2 µM)
MIC Staphylococcus aureus (GC 4545) (Staphylococcus sp.; strain GC 4545): 16 µg/mL (≈ 11.2 µM)
MIC Coagulase Negative Staphylococcus (GC 4547) (Staphylococcus sp.; strain GC 4547): 8 µg/mL (≈ 5.59 µM)
MIC Coagulase Negative Staphylococcus (GC 4548) (Staphylococcus sp.; strain GC 4548): 8 µg/mL (≈ 5.59 µM)
MIC Coagulase Negative Staphylococcus (GC 4549) (Staphylococcus sp.; strain GC 4549): 8 µg/mL (≈ 5.59 µM)
MIC Coagulase Negative Staphylococcus (GC 4551) (Staphylococcus sp.; strain GC 4551): 16 µg/mL (≈ 11.2 µM)
MIC Coagulase Negative Staphylococcus (GC 6257) (Staphylococcus sp.; strain GC 6257): 8 µg/mL (≈ 5.59 µM)
MIC Streptococcus agalactiae (GC 4564) (Streptococcus sp.; Streptococcus agalactiae (GC 4564)): 16 µg/mL (≈ 11.2 µM)
MIC Streptococcus pneumoniae (ATCC 6301) (Streptococcus sp.; Streptococcus pneumoniae (ATCC 6301)): 8 µg/mL (≈ 5.59 µM)
MIC Streptococcus pneumoniae (GC 1894) (Streptococcus sp.; Streptococcus pneumoniae (GC 1894)): 4 µg/mL (≈ 2.79 µM)
MIC Streptococcus pneumoniae (GC 4565) (Streptococcus sp.; Streptococcus pneumoniae (GC 4565)): 8 µg/mL (≈ 5.59 µM)
MIC Streptococcus pyogenes (GC 4563) (Streptococcus sp.; Streptococcus pyogenes (GC 4563)): 16 µg/mL (≈ 11.2 µM)
MIC Streptococcus agalactiae (GC 4564) (Streptococcus sp.; [1]): 16 µg/mL (≈ 11.2 µM)
MIC Streptococcus pneumoniae (ATCC 6301) (Streptococcus sp.; [1]): 8 µg/mL (≈ 5.59 µM)
MIC Streptococcus pneumoniae (GC 1894) (Streptococcus sp.; [1]): 4 µg/mL (≈ 2.79 µM)
MIC Streptococcus pneumoniae (GC 4565) (Streptococcus sp.; [1]): 8 µg/mL (≈ 5.59 µM)
MIC Streptococcus pyogenes (GC 4563) (Streptococcus sp.; [1]): 16 µg/mL (≈ 11.2 µM)
SMILES: COc1ccc2cc(C3OCC4OC(OC5C(CO)OC(Oc6ccc(CC7NC(=O)C(C(C)c8ccccc8)NC(=O)CNC(=O)C(CO)NC(=O)C(CC8CNC(=N)N8C8OC(CO)C(O)C(O)C8O)NC(=O)C(CC8CNC(=N)N8)NC7=O)cc6)C(O)C5O)C(O)C(O)C4O3)ccc2c1 (stereo not shown) [Example 190]
MIC Staphylococcus haemolyticus (GC 4546) (Staphylococcus sp.; strain GC 4546): 8 µg/mL (≈ 5.59 µM)
